# Where two headings read alike, the source gives them in different places.
# Experiments:
# [1] = test system: kardiovaskuläre System und die Atmung; assay: Effect on cardiovascular system, respiration and muscle; format: in vivo
# [2] = Acute toxicity, single administration, mice; conditions: mouse, in vivo, Mäuse, read-out: LD50 (mg/kg) und deren zuverlässige Grenzen P = 0,05
# Description: Die Toxizität des erfindungsgemässen Arzneimittels bei der einmaligen Einführung (die akute Toxizität) wurde an geschlechtsreifen Tieren (an Mäusen, Ratten, Katzen, Hunden) bestimmt. Die Analyse der experimentellen Angaben für Mäuse und Ratten wurde nach der Methode der Probit-Analyse nach Litchfield und Wilcoxon, und für Hunde und Katzen nach der Methode der Anreicherung der Frequenz nach Behrens durchgeführt.
# Die Toxizitätsparameter LD50 wurden für Mause bei der intraperitonealen und subkutanen Einführung, für Ratten bei der subkutanen, intramuskulären und enteralen Einführung, für Katzen bei der intramuskulären Einführung und für Hunde bei der subkutanen Einführung bestimmt.
# [3] = Acute toxicity, single administration, rats; conditions: rat, in vivo, Ratten, read-out: LD50 (mg/kg) und deren zuverlässige Grenzen P = 0,05
# [4] = target: T1, Azetylcholinesterase des menschlichen Bluts (Homo sapiens, UniProt P22303); assay: Reactivation in vitro of erythrocyte cholinesterase inhibited by organophosphorus compounds (potentiometric titration); format: biochemical; conditions: reactivator 1.10^-4 M01/1, 25°C, pH 7,5
# T1 construct: Cholinesterase des Grundgerüstes der Erythrozyten des menschlichen Bluts; from tissue; host or cells: human erythrocyte stroma (ghosts)
# [5] = test system: Versuchstiere; assay: Prolonged administration to test animals (blood, urine); format: in vivo
# Description: Nur zu einer späteren Beobachtungsperiode (4 bis 9 Tage) wurde eine unbedeutende Erhöhung der Gesamtleukozytenzahl nachgewiesen. Am 3. Tag trat auch eine geringe Aktivierung der Blutcholinesterase auf, in den nachfolgenden Beobachtungstagen (4 bis 9 Tage) überstieg jedoch die Aktivität des Ferments das Ausgangsniveau nicht.
# Die morpholigischen Untersuchungen der inneren Organe der Versuchstiere legten keine pathologischen Veränderungen im Vergleich zur Kontrolle an den Tag.
# T1 sequence (P22303 other isoform, or with tags, fused parts or gaps): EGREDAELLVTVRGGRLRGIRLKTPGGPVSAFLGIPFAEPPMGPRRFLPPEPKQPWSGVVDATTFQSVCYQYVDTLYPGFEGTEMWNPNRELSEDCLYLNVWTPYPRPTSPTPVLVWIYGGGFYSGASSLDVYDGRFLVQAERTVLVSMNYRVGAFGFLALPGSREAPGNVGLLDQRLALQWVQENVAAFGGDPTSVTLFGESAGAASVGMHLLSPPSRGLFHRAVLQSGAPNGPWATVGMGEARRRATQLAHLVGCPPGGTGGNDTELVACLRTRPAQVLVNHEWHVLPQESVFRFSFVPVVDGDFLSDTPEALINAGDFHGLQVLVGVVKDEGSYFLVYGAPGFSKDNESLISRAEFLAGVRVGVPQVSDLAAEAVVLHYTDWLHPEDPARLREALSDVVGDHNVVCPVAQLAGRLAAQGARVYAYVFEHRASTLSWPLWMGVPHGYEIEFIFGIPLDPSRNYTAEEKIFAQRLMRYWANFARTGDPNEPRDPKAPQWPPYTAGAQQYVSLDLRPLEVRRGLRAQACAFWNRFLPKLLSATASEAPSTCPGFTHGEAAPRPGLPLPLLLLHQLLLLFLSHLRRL
structure (smiles),measurement,setting,value
"C=CC[n+]1ccccc1C=NO [das erfindungsgemässe Arzneimittel, N-Allyl-2-pyridinaldoxiinbromid]",myotrope Wirkung,[1]; in vivo,keine myotrope Wirkung
same,arterieller Blutdruck,[1]; intravenöse Einführung (12 bis 15 mg/kg),setzte unbedeutend für eine kürzere Zeit den arteriellen Blutdruck herab
same,Einfluss auf das kardiovaskuläre System und die Atmung,[1]; subkutane Einführung in hohen Dosen (10 und 20 mg/kg),keinen Einfluss
same,LD50,"[2]; ip, intraperitoneal",64 mg/kg
same,LD50,"[2]; sc, subkutan",115 mg/kg
same,LD50,"[3]; ip, intraperitoneal",135 mg/kg
same,LD50,"[3]; po, enteral",260 mg/kg
same,LD50,"[3]; sc, subkutan",200 mg/kg
same,activity at 100 µM,"[4]; 0.5 h, pH 7, inhibited with O,O-Dimethyl-(2,2,2-trichlor-1-oxyäthyl) phosphonat, 0,5 h, read-out: Aktivität der Azetylcholinesterase in % (Reaktivationszeit in Stunden) 0,5",53.6%
same,activity at 100 µM,"[4]; 0.5 h, pH 7, inhibited with O,O-Dimethyl-S-(1,2-dikarbäthoxyäthyl)-dithiophosphat, 0,5 h, read-out: Aktivität der Azetylcholinesterase in % (Reaktivationszeit in Stunden) 0,5",48.1%
same,activity at 100 µM,"[4]; 1 h, pH 7, inhibited with O,O-Dimethyl-(2,2,2-trichlor-1-oxyäthyl) phosphonat, 1 h, read-out: Aktivität der Azetylcholinesterase in % (Reaktivationszeit in Stunden) 1",72.2%
same,activity at 100 µM,"[4]; 1 h, pH 7, inhibited with O,O-Dimethyl-S-(1,2-dikarbäthoxyäthyl)-dithiophosphat, 1 h, read-out: Aktivität der Azetylcholinesterase in % (Reaktivationszeit in Stunden) 1",75%
same,activity at 100 µM,"[4]; 2 h, pH 7, inhibited with O,O-Dimethyl-(2,2,2-trichlor-1-oxyäthyl) phosphonat, 2 h, read-out: Aktivität der Azetylcholinesterase in % (Reaktivationszeit in Stunden) 2",72.3%
same,activity at 100 µM,"[4]; 2 h, pH 7, inhibited with O,O-Dimethyl-S-(1,2-dikarbäthoxyäthyl)-dithiophosphat, 2 h, read-out: Aktivität der Azetylcholinesterase in % (Reaktivationszeit in Stunden) 2",78.1%
same,Einfluss auf den Bestand des peripheren Bluts,"[5]; dauernde Anwendung, slight rise of leukocytes at 4 bis 9 Tage",keinen merklichen Einfluss
same,Harnbestand,[5]; längere Einführung,veränderte nicht den Harnbestand
